SMILES strings stand for the structures. Where a name gives a salt, the structure may show the parent alone.

We go through 35 compounds from patent US10442803B2, “Tricyclic heterocycles as bet protein inhibitors” (Incyte Corporation, priority 2013, dated 2019).

The assay concerns KMS.12.BM cells. Briefly: KMS.12.BM cell viability assay. Type of assay: cell-based. The following applies: 72 h; KMS.12.BM human myeloma cells, 3 days, Cell Titer-GLO ATP quantitation; read-out: KMS cellular IC50. On the procedure:
KMS.12.BM cell line (human myeloma) was purchased from JCRB (Osaka, Japan) and maintained in RPMI with 10% FBS culture medium. To measure the cytotoxic activity of the compounds through ATP quantitation, the KMS.12.BM cells are plated in the RPMI culture medium at 5000 cells/well/per 100 μL into a 96-well polystyrene clear black tissue culture plate (Greiner-bio-one through VWR, NJ), in the presence or absence of a concentration range of test compounds. After 3 days, […] Cell Titer-GLO Luminescent (Promega, Madison, Wis.) cell culture agent is added to each well for 10 minutes at room temperature to stabilize the luminescent signal. This determines the number of viable cells in culture based on quantitation of the ATP present, which signals the presence of metabolically active cells. Luminescence is measured with the Top Count 384 (Packard Bioscience through Perkin Elmer, Boston, Mass.).
IC50 data for the Examples is presented in Table 4 as determined by Assay B1.

In the case of `Cc1nnc2ccc3c(ccn3C(C)c3ccccc3)n12` (racemic) [Example 4, 1-methyl-6-(1-phenylethyl)-6H-pyrrolo[2,3-e][1,2,4]triazolo[4,3-a]pyridine], the IC50 fell in the range of 1000 to 10000 nM. For `CCCCC(c1ccccc1)n1c(C)cc2c1ccc1nnc(C)n12` (racemic) [Example 24, 1,7-dimethyl-6-(1-phenylpentyl)-6H-pyrrolo[2,3-e][1,2,4]triazolo[4,3-a]pyridine], the IC50 was 1000 to 10000 nM. On to `Cc1nnc2ccc3c(cc(-c4ccn(C(C)CC#N)n4)n3Cc3ccccc3)n12` (racemic) [Example 87, 3-[3-(6-benzyl-1-methyl-6H-pyrrolo[2,3-e][1,2,4]triazolo[4,3-a]pyridin-7-yl)-1H-pyrazol-1-yl]butanenitrile trifluoroacetate salt (racemate)], for which the IC50 was at most 1000 nM.

For the compound `Cc1nnc2ccc3c(cc(-c4ccn(CC(C)C#N)n4)n3Cc3ccccc3)n12` (racemic) [Example 88, 3-[3-(6-benzyl-1-methyl-6H-pyrrolo[2,3-e][1,2,4]triazolo[4,3-a]pyridin-7-yl)-1H-pyrazol-1-yl]-2-methylpropanenitrile trifluoroacetate salt (racemate)], the IC50 was at most 1000 nM. As to `Cc1cc2c(cc(NC3CCCN(C)C3)c3nnc(C)n32)n1Cc1ccccc1` (racemic) [Example 144, 6-benzyl-1,7-dimethyl-N-(1-methylpiperidin-3-yl)-6H-pyrrolo[2,3-e][1,2,4]triazolo[4,3-a]pyridin-4-amine (racemic)], the IC50 was in the range of 1000 to 10000 nM.

In the case of `Cc1cc2c(cc(NC3CCN(C)C3)c3nnc(C)n32)n1Cc1ccccc1` (racemic) [Example 145, 6-benzyl-1,7-dimethyl-N-(1-methylpyrrolidin-3-yl)-6H-pyrrolo[2,3-e][1,2,4]triazolo[4,3-a]pyridin-4-amine bis(trifluoroacetate) salt (racemic)], the IC50 is at most 1000 nM. Turning to `Cc1nnc2ccc3c(cc(-c4ncco4)n3Cc3cc(Cl)cc(CN4CCC(O)C4)c3)n12` (racemic) [Example 199, 1-(3-Chloro-5-{[1-methyl-7-(1,3-oxazol-2-yl)-6H-pyrrolo[2,3-e][1,2,4]triazolo[4,3-a]pyridin-6-yl]methyl}benzyl)pyrrolidin-3-ol bis(trifluoroacetate) salt (racemic)], the IC50 was at most 1000 nM. `Cc1cc2c(cc(N[C@H]3CCN(C)[C@H](C)C3)c3nnc(C)n32)n1Cc1ccccc1` (racemic) [Example 225, 6-Benzyl-N-[(2R,4S)-1,2-dimethylpiperidin-4-yl]-1,7-dimethyl-6H-pyrrolo[2,3-e][1,2,4]triazolo[4,3-a]pyridin-4-amine and 6-Benzyl-N-[(2S,4R)-1,2-dimethylpiperidin-4-yl]-1,7-dimethyl-6H-pyrrolo[2,3-e][1,2,4]triazolo[4,3-a]pyridin-4-amine]: the IC50 is at most 1000 nM.

Take `Cc1cc2c(cc(N[C@H]3CC[C@@H](C#N)CC3)c3nnc(C)n32)n1Cc1ccccc1` (single isomer, unassigned) [Example 215 b, 4-[(6-benzyl-1,7-dimethyl-6H-pyrrolo[2,3-e][1,2,4]triazolo[4,3-a]pyridin-4-yl)amino]cyclohexanecarbonitrile trifluoroacetate salt]: the IC50 lay in the range of 1000 to 10000 nM. In the case of `Cc1nnc2ccc3c(ccn3Cc3ccccc3)n12` [Example 1, 6-benzyl-1-methyl-6H-pyrrolo[2,3-e][1,2,4]triazolo[4,3-a]pyridine], the IC50 lay in the range of 1000 to 10000 nM.

Turning to `Cc1cc2c(ccc3nnc(C)n32)n1Cc1ccccc1` [Example 2, 6-benzyl-1,7-dimethyl-6H-pyrrolo[2,3-e][1,2,4]triazolo[4,3-a]pyridine], the IC50 is at most 1000 nM.

As to `Cc1cc2c(ccc3nnc(C)n32)n1S(=O)(=O)c1ccccc1` [Example 2a, 1,7-dimethyl-6-(phenylsulfonyl)-6H-pyrrolo[2,3-e][1,2,4]triazolo[4,3-a]pyridine], the IC50 fell in the range of 1000 to 10000 nM.

For `Cc1nnc2ccc3c(ccn3S(=O)(=O)c3ccccc3)n12` [Example 3, 1-methyl-6-(phenylsulfonyl)-6H-pyrrolo[2,3-e][1,2,4]triazolo[4,3-a]pyridine], the IC50 was in the range of 1000 to 10000 nM. `Cc1cc2c(ccc3nnc(C)n32)n1CCc1ccccc1` [Example 6, 1,7-dimethyl-6-(2-phenylethyl)-6H-pyrrolo[2,3-e][1,2,4]triazolo[4,3-a]pyridine]: the IC50 lay within 1000 to 10000 nM. Regarding `Cc1cc2c(ccc3nnc(C)n32)n1Cc1ccccn1` [Example 7, 1,7-dimethyl-6-(pyridin-2-ylmethyl)-6H-pyrrolo[2,3-e][1,2,4]triazolo[4,3-a]pyridine], the IC50 lay in the range of 1000 to 10000 nM.

Regarding `Cc1cc2c(ccc3nnc(C)n32)n1Cc1ccccc1Cl` [Example 8, 6-(2-chlorobenzyl)-1,7-dimethyl-6H-pyrrolo[2,3-e][1,2,4]triazolo[4,3-a]pyridine], the IC50 was at most 1000 nM. As for `Cc1cc2c(ccc3nnc(C)n32)n1Cc1cccc(Cl)c1` [Example 9, 6-(3-chlorobenzyl)-1,7-dimethyl-6H-pyrrolo[2,3-e][1,2,4]triazolo[4,3-a]pyridine], the IC50 is at most 1000 nM.

With `Cc1cc2c(ccc3nnc(C)n32)n1Cc1ccc(Cl)cc1` [Example 10, 6-(4-chlorobenzyl)-1,7-dimethyl-6H-pyrrolo[2,3-e][1,2,4]triazolo[4,3-a]pyridine], the IC50 was at most 1000 nM. Turning to `Cc1cc2c(ccc3nnc(C)n32)n1Cc1cccnc1` [Example 11, 1,7-dimethyl-6-(pyridin-3-ylmethyl)-6H-pyrrolo[2,3-e][1,2,4]triazolo[4,3-a]pyridine], the IC50 was in the range of 1000 to 10000 nM. Consider `Cc1cc2c(ccc3nnc(C)n32)n1CC1CCCC1` [Example 13, 6-(cyclopentylmethyl)-1,7-dimethyl-6H-pyrrolo[2,3-e][1,2,4]triazolo[4,3-a]pyridine], for which the concentration for half-maximal inhibition (IC50) lay in the range of 1000 to 10000 nM.

On to `Cc1cc2c(ccc3nnc(C)n32)n1Cc1ccccc1F` [Example 14, 6-(2-fluorobenzyl)-1,7-dimethyl-6H-pyrrolo[2,3-e][1,2,4]triazolo[4,3-a]pyridine], for which the IC50 was at most 1000 nM. On to `Cc1cc2c(ccc3nnc(C)n32)n1Cc1cccc(F)c1` [Example 15, 6-(3-fluorobenzyl)-1,7-dimethyl-6H-pyrrolo[2,3-e][1,2,4]triazolo[4,3-a]pyridine], for which the IC50 was at most 1000 nM. To `Cc1cc2c(ccc3nnc(C)n32)n1Cc1ccc(F)cc1` [Example 16, 6-(4-fluorobenzyl)-1,7-dimethyl-6H-pyrrolo[2,3-e][1,2,4]triazolo[4,3-a]pyridine] belongs at most 1000 nM; to `Cc1ccccc1Cn1c(C)cc2c1ccc1nnc(C)n12` [Example 17, 1,7-dimethyl-6-(2-methylbenzyl)-6H-pyrrolo[2,3-e][1,2,4]triazolo[4,3-a]pyridine], at most 1000 nM; to `Cc1cccc(Cn2c(C)cc3c2ccc2nnc(C)n23)c1` [Example 18, 1,7-dimethyl-6-(3-methylbenzyl)-6H-pyrrolo[2,3-e][1,2,4]triazolo[4,3-a]pyridine], at most 1000 nM. With `Cc1ccc(Cn2c(C)cc3c2ccc2nnc(C)n23)cc1` [Example 19, 1,7-dimethyl-6-(4-methylbenzyl)-6H-pyrrolo[2,3-e][1,2,4]triazolo[4,3-a]pyridine], the IC50 is at most 1000 nM. For `Cc1cc2c(ccc3nnc(C)n32)n1Cc1cccc(C#N)c1` [Example 20, 3-[(1,7-dimethyl-6H-pyrrolo[2,3-e][1,2,4]triazolo[4,3-a]pyridine-6-yl)methyl]benzonitrile], the IC50 is at most 1000 nM. With `Cc1cc2c(ccc3nnc(C)n32)n1Cc1ccc2ccccc2n1` [Example 21, 1,7-dimethyl-6-(quinolin-2-ylmethyl)-6H-pyrrolo[2,3-e][1,2,4]triazolo[4,3-a]pyridine], the IC50 was at most 1000 nM. On to `COc1cccc(Cn2c(C)cc3c2ccc2nnc(C)n23)c1` [Example 22, 6-(3-methoxybenzyl)-1,7-dimethyl-6H-pyrrolo[2,3-e][1,2,4]triazolo[4,3-a]pyridine], for which the IC50 was at most 1000 nM.

Regarding `Cc1cc2c(ccc3nnc(C)n32)n1Cc1cccc(O)c1` [Example 23, 3-[(1,7-dimethyl-6H-pyrrolo[2,3-e][1,2,4]triazolo[4,3-a]pyridin-6-yl)methyl]phenol], the IC50 is at most 1000 nM. To `CC(=O)Nc1cccc(Cn2c(C)cc3c2ccc2nnc(C)n23)c1` [Example 25, N-{3-[(1,7-dimethyl-6H-pyrrolo[2,3-e][1,2,4]triazolo[4,3-a]pyridin-6-yl)methyl]phenyl}acetamide trifluoroacetate salt] belongs at most 1000 nM; to `Cc1cc2c(ccc3nnc(C)n32)n1Cc1cccc(CO)c1` [Example 26, {3-[(1,7-dimethyl-6H-pyrrolo[2,3-e][1,2,4]triazolo[4,3-a]pyridin-6-yl)methyl]phenyl}methanol trifluoroacetate salt], at most 1000 nM; to `Cc1cc2c(ccc3nnc(C)n32)n1Cc1cccc(CN2CC(O)C2)c1` [Example 27, 1-(3-((1,7-dimethyl-6H-pyrrolo[2,3-e][1,2,4]triazolo[4,3-a]pyridin-6-yl)methyl)benzyl)azetidin-3-ol bis-trifluoroacetate salt], at most 1000 nM. Take `Cc1cc2c(ccc3nnc(C)n32)n1Cc1cccc(CN2CCC2)c1` [Example 28, 6-[3-(azetidin-1-ylmethyl)benzyl]-1,7-dimethyl-6H-pyrrolo[2,3-e][1,2,4]triazolo[4,3-a]pyridine]: the IC50 is at most 1000 nM. As to `Cc1cc2c(ccc3nnc(C)n32)n1Cc1cccc(C(N)=O)c1` [Example 30, 3-((1,7-dimethyl-6H-pyrrolo[2,3-e][1,2,4]triazolo[4,3-a]pyridin-6-yl)methyl)benzamide trifluoroacetate salt], the IC50 lay within 1000 to 10000 nM.

For orientation: IC50 means the concentration that gives 50% inhibition.
